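48-hour exposure; five concentrations; linearly interpolated endpoints. GI50 marks 50% less growth. TGI: total growth inhibition.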 Activity calls are given as the source filed them. Rule as the data show it: active = GI50 below about 0.43 µM; inactive = the rest.
Experiments:
Experiment in all cases: NCI tumour cell line growth inhibition, 48 h
[1] = system: HCT-15 colon
[2] = system: M14 melanoma
[3] = system: NCI-H460 lung
[4] = system: LOX IMVI melanoma
[5] = system: SNB-75 CNS
[6] = system: DMS 114 small cell lung
[7] = system: OVCAR-8 ovarian
[8] = system: DMS 273 small cell lung
[9] = system: HOP-18 NSCLC
[10] = system: SK-OV-3 ovarian
[11] = system: 786-0 renal
[12] = system: MOLT-4 leukemia
[13] = system: EKVX NSCLC
[14] = system: DLD-1 colon
[15] = system: KM20L2 colon
[16] = system: K-562 leukemia
[17] = system: COLO 205 colon
[18] = system: KM12 colon
[19] = system: IGROV1 ovarian
[20] = system: OVCAR-4 ovarian
[21] = system: SF-268 CNS
[22] = system: SN12C renal
[23] = system: U251 CNS
[24] = system: SK-MEL-2 melanoma
[25] = system: HOP-62 NSCLC
[26] = system: NCI-H23 lung
[27] = system: NCI-H226 lung
[28] = system: RXF 393 renal
[29] = system: LXFL 529 NSCLC
[30] = system: RXF-631 renal
[31] = system: UACC-62 melanoma
[32] = system: ACHN renal
[33] = system: A549 NSCLC
[34] = system: SF-295 CNS
[35] = system: SK-MEL-5 melanoma
[36] = system: HL-60(TB) leukemia
[37] = system: UACC-257 melanoma
[38] = system: CCRF-CEM leukemia
[39] = system: TK-10 renal
[40] = system: SW-620 colon
[41] = system: CAKI-1 renal
[42] = system: UO-31 renal
[43] = system: HCT-116 colon
[44] = system: A498 renal
[45] = system: SK-MEL-28 melanoma
[46] = system: OVCAR-3 ovarian
[47] = system: MALME-3M melanoma
[48] = system: SR leukemia
[49] = system: HT29 colon
[50] = system: SNB-19 CNS
[51] = system: OVCAR-5 ovarian
[52] = system: HCC-2998 colon
[53] = system: M19-MEL melanoma
[54] = system: NCI-H522 lung
[55] = system: XF 498 CNS
[56] = system: RPMI-8226 leukemia
[57] = system: HOP-92 NSCLC
[58] = system: SNB-78 CNS
[59] = system: SF-539 CNS

With `Cc1ccc2c(c1)C(c1cccc3ccccc13)OC2=O` (stereo not given) the TGI [1] was greater than 100 µM, the TGI [2] was greater than 100 µM and the TGI [3] was greater than 100 µM. For the same compound, the TGI [4] was greater than 100 µM, the TGI [5] was greater than 100 µM and the TGI [6] was greater than 100 µM. It also gave a TGI [7] greater than 100 µM, a TGI [8] greater than 100 µM and a TGI [9] greater than 100 µM. For the same compound, the TGI [10] was greater than 100 µM, the TGI [11] was greater than 100 µM and the TGI [12] was greater than 100 µM. For the same compound, the TGI [13] was greater than 100 µM, the TGI [14] was greater than 100 µM and the TGI [15] was greater than 100 µM. It also gave a TGI [16] greater than 100 µM, a TGI [17] greater than 100 µM and a TGI [18] greater than 100 µM. The TGI [19] was greater than 100 µM, the TGI [20] was greater than 100 µM and the TGI [21] was greater than 100 µM. It also gave a TGI [22] greater than 100 µM, a TGI [23] greater than 100 µM and a TGI [24] greater than 100 µM. The TGI [25] was 81.7 µM, the TGI [26] was greater than 100 µM and the TGI [27] was greater than 100 µM. For the same compound, the TGI [28] was 80.4 µM, the TGI [29] was greater than 100 µM and the TGI [30] was greater than 100 µM. For the same compound, the TGI [31] was greater than 100 µM, the TGI [32] was greater than 100 µM and the TGI [33] was greater than 100 µM. For the same compound, the TGI [34] was greater than 100 µM, the TGI [35] was greater than 100 µM and the TGI [36] was greater than 100 µM. For the same compound, the TGI [37] was greater than 100 µM, the TGI [38] was greater than 100 µM and the TGI [39] was greater than 100 µM. The TGI [40] was greater than 100 µM, the TGI [41] was greater than 100 µM and the TGI [42] was greater than 100 µM. It also gave a TGI [43] greater than 100 µM, a TGI [44] of 83.9 µM and a TGI [45] greater than 100 µM. The TGI [46] was greater than 100 µM, the TGI [47] was greater than 100 µM and the TGI [48] was greater than 100 µM. For the same compound, the TGI [49] was greater than 100 µM, the TGI [50] was greater than 100 µM and the TGI [51] was greater than 100 µM. For the same compound, the TGI [52] was greater than 100 µM, the TGI [53] was greater than 100 µM and the TGI [54] was greater than 100 µM.

In the case of `O=c1ccc(=O)c2c(=O)c3ccccc3c(=O)c1=2`, the TGI [55] is reported as greater than 100 µM, the TGI [1] is reported as greater than 100 µM and the TGI [2] is reported as greater than 100 µM. The TGI [3] was greater than 100 µM, the TGI [4] was greater than 100 µM and the TGI [5] was greater than 100 µM. For the same compound, the TGI [6] was 95.1 µM, the TGI [7] was greater than 100 µM and the TGI [8] was greater than 100 µM. The TGI [10] was greater than 100 µM, the TGI [11] was greater than 100 µM and the TGI [12] was greater than 100 µM. The TGI [13] was greater than 100 µM, the TGI [14] was greater than 100 µM and the TGI [16] was greater than 100 µM. For the same compound, the TGI [17] was greater than 100 µM, the TGI [18] was greater than 100 µM and the TGI [19] was greater than 100 µM. It also gave a TGI [20] greater than 100 µM, a TGI [21] greater than 100 µM and a TGI [22] greater than 100 µM. The TGI [23] was greater than 100 µM, the TGI [24] was greater than 100 µM and the TGI [25] was greater than 100 µM. The TGI [26] was greater than 100 µM, the TGI [28] was greater than 100 µM and the TGI [29] was greater than 100 µM. For the same compound, the TGI [31] was greater than 100 µM, the TGI [56] was greater than 100 µM and the TGI [32] was greater than 100 µM. For the same compound, the TGI [33] was greater than 100 µM, the TGI [34] was greater than 100 µM and the TGI [35] was 35.5 µM. It also gave a TGI [36] of 70.9 µM, a TGI [37] of 90.4 µM and a TGI [38] greater than 100 µM. For the same compound, the TGI [57] was greater than 100 µM, the TGI [39] was greater than 100 µM and the TGI [40] was greater than 100 µM. For the same compound, the TGI [41] was greater than 100 µM, the TGI [42] was greater than 100 µM and the TGI [43] was 61.1 µM. It also gave a TGI [44] greater than 100 µM, a TGI [45] greater than 100 µM and a TGI [46] of 55.2 µM. It also gave a TGI [47] greater than 100 µM, a TGI [58] greater than 100 µM and a TGI [50] greater than 100 µM. For the same compound, the TGI [51] was greater than 100 µM, the TGI [59] was 70.9 µM and the TGI [52] was greater than 100 µM. The TGI [53] was 36.8 µM and the TGI [54] was greater than 100 µM.

For `O=[N+]([O-])c1ccc2c(c1)[O][Sn][O]2`, the outcome [55] was “inactive”, the GI50 [1] was 16.8 µg/mL and the TGI [1] was greater than 150 µg/mL. It also gave a GI50 [2] of 23.8 µg/mL, a TGI [2] of 78.2 µg/mL and a GI50 [3] of 69.5 µg/mL. It also gave a TGI [3] greater than 150 µg/mL, a GI50 [4] of 66.5 µg/mL and a TGI [4] greater than 150 µg/mL. It also gave a GI50 [5] greater than 150 µg/mL, a TGI [5] greater than 150 µg/mL and a GI50 [6] of 66.2 µg/mL. It also gave a TGI [6] greater than 150 µg/mL, a GI50 [7] of 65.7 µg/mL and a TGI [7] greater than 150 µg/mL. The GI50 [8] was 18.8 µg/mL, the TGI [8] was greater than 150 µg/mL and the outcome [9] was “inactive”. The GI50 [10] was greater than 150 µg/mL, the TGI [10] was greater than 150 µg/mL and the GI50 [11] was 139 µg/mL. It also gave a TGI [11] greater than 150 µg/mL, a GI50 [12] of 33 µg/mL and a TGI [12] greater than 150 µg/mL. For the same compound, the GI50 [13] was greater than 150 µg/mL, the TGI [13] was greater than 150 µg/mL and the outcome [15] was “inactive”. The GI50 [16] was 40.2 µg/mL, the TGI [16] was greater than 150 µg/mL and the GI50 [17] was 62.5 µg/mL. The TGI [17] was greater than 150 µg/mL, the GI50 [18] was 37.6 µg/mL and the TGI [18] was greater than 150 µg/mL. It also gave a GI50 [19] of 115 µg/mL, a TGI [19] greater than 150 µg/mL and a GI50 [20] greater than 150 µg/mL. It also gave a TGI [20] greater than 150 µg/mL, a GI50 [21] of 47.6 µg/mL and a TGI [21] greater than 150 µg/mL. It also gave a GI50 [22] greater than 150 µg/mL, a TGI [22] greater than 150 µg/mL and a GI50 [23] greater than 150 µg/mL. For the same compound, the TGI [23] was greater than 150 µg/mL, the GI50 [24] was greater than 150 µg/mL and the TGI [24] was greater than 150 µg/mL. For the same compound, the GI50 [25] was greater than 150 µg/mL, the TGI [25] was greater than 150 µg/mL and the GI50 [26] was 15.3 µg/mL. The TGI [26] was 143 µg/mL, the GI50 [27] was 29 µg/mL and the TGI [27] was greater than 150 µg/mL. The GI50 [28] was 8.22 µg/mL, the TGI [28] was greater than 150 µg/mL and the outcome [29] was “inactive”. It also gave a GI50 [31] of 8.32 µg/mL, a TGI [31] greater than 150 µg/mL and a GI50 [56] of 17.8 µg/mL. It also gave a TGI [56] greater than 150 µg/mL, a GI50 [32] of 139 µg/mL and a TGI [32] greater than 150 µg/mL. The GI50 [33] was greater than 150 µg/mL, the TGI [33] was greater than 150 µg/mL and the GI50 [34] was greater than 150 µg/mL. The TGI [34] was greater than 150 µg/mL, the GI50 [35] was 75.8 µg/mL and the TGI [35] was greater than 150 µg/mL. It also gave a GI50 [36] of 36.5 µg/mL, a TGI [36] greater than 150 µg/mL and a GI50 [37] of 40.5 µg/mL. It also gave a TGI [37] greater than 150 µg/mL, a GI50 [38] of 17.6 µg/mL and a TGI [38] greater than 150 µg/mL. It also gave a GI50 [57] of 45.3 µg/mL, a TGI [57] of 88.3 µg/mL and a GI50 [39] greater than 150 µg/mL. For the same compound, the TGI [39] was greater than 150 µg/mL, the GI50 [40] was 114 µg/mL and the TGI [40] was greater than 150 µg/mL. The GI50 [41] was 104 µg/mL, the TGI [41] was greater than 150 µg/mL and the GI50 [42] was 125 µg/mL. The TGI [42] was greater than 150 µg/mL, the GI50 [43] was 45.3 µg/mL and the TGI [43] was greater than 150 µg/mL. It also gave a GI50 [44] greater than 150 µg/mL, a TGI [44] greater than 150 µg/mL and a GI50 [45] of 29.4 µg/mL. It also gave a TGI [45] greater than 150 µg/mL, a GI50 [46] of 48.1 µg/mL and a TGI [46] greater than 150 µg/mL. The GI50 [47] was 149 µg/mL, the TGI [47] was greater than 150 µg/mL and the GI50 [49] was 86 µg/mL. For the same compound, the TGI [49] was greater than 150 µg/mL, the GI50 [58] was 124 µg/mL and the TGI [58] was greater than 150 µg/mL. It also gave a GI50 [50] of 55.2 µg/mL, a TGI [50] greater than 150 µg/mL and a GI50 [51] greater than 150 µg/mL. It also gave a TGI [51] greater than 150 µg/mL, a GI50 [59] of 50.1 µg/mL and a TGI [59] greater than 150 µg/mL. For the same compound, the GI50 [52] was greater than 150 µg/mL, the TGI [52] was greater than 150 µg/mL and the GI50 [53] was 36.9 µg/mL. The TGI [53] was greater than 150 µg/mL, the GI50 [54] was 4.23 µg/mL and the TGI [54] was 69.5 µg/mL.
